In patent publication US11530244B2, “Cyclic polypeptides for PCSK9 inhibition” (priority 2018, dated 2022):
Starred links: 1 amine or outer side, 2 acyl side, 3 side chain; linkers in the order of their positions; H or OH if unused. Positions of bridges follow the written chain, without caps; N, C: chain ends. Non-standard residues stand in square brackets, D forms with d. Residues, ends and D or L forms follow the SMILES beside them. Groups on a side chain read outwards from the residue. *: point of attachment. X50 = C[C@@H](N[*:1])C(=O)C[C@@H](Cc1c[nH]c2ccc(F)cc12)C(=O)[*:2]; X25 = O=C([C@H](Cc1cccc(OCC=[*:3])c1)N[*:1])[*:2]; X26 = O=C([C@@H]1[C@@H](OCC=[*:3])CCN1[*:1])[*:2]; NHCH2C6H4(p)CH2CH2NH = c1cc(CN[*:1])ccc1CCN[*:2]; Trp(5-F) = N[C@@H](Cc1c[nH]c2ccc(F)cc12)C(=O)O; Phe(4-CH2NH2) = NCc1ccc(C[C@H](N)C(=O)O)cc1; Pro(cis-4-F) = O=C(O)[C@@H]1C[C@H](F)CN1; X4 = O=C(CCSCc1cccc(CSCCN[*:1])c1)[*:2]; γGlu = O=C(O)[C@H](CCC(=O)[*:2])N[*:1]; mXylylene = c1cc(C[*:1])cc(C[*:2])c1; Palmitoyl = CCCCCCCCCCCCCCCC(=O)*; X6 = O=C(Cc1ccc(CN[*:2])cc1)[*:1]; X44 = O=C(C[*:2])NCCCC(=O)[*:1]; Aad = N[C@@H](CCCC(=O)O)C(=O)O; Suc = O=C(CCC(=O)[*:2])[*:1]; αMeP = C[C@@]1(C(=O)O)CCCN1; 3Amb = NCc1cccc(C(=O)O)c1; Orn = NCCC[C@H](N)C(=O)O; AEEA = NCCOCCOCC(=O)O; X2 = O=C(C[*:2])[*:1]; Mpa = O=C(O)CCS

How the values were obtained:
Type in all cases: binding
PCSK9 [1] = molecular target: T1, PCSK9 (Homo sapiens (Human), UniProt Q8NBP7); assay: PCSK9 Alexa FRET Standard assay (displacement of AlexaFluor647 tagged cyclic peptide Reagent A); conditions: PCSK9 Alexa FRET Standard assay, 0.5 nM PCSK9, 20 nM AF cyclic peptide Reagent A; read-out: IC50
T1 sequence (Q8NBP7 153-692): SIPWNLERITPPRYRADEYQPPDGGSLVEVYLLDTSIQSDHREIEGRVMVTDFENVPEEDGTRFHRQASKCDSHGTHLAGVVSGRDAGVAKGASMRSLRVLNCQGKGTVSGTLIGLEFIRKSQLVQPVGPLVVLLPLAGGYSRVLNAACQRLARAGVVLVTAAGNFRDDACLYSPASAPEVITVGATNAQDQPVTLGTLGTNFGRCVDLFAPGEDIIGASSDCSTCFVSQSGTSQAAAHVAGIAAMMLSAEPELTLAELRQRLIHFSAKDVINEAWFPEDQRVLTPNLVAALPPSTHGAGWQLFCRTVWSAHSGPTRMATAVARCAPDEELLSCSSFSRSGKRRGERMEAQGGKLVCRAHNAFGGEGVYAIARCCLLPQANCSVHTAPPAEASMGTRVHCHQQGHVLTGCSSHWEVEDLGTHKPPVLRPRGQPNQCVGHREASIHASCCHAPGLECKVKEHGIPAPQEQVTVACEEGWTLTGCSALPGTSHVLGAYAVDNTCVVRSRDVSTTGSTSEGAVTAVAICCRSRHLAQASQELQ
Method in brief: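 TR-FRET displacement: 0.5 nM biotinylated PCSK9 with 1.25 nM Strep-Eu and 20 nM AlexaFluor-tagged cyclic peptide (final) in 50 mM HEPES pH 7.4, 0.15 M NaCl, 5 mM CaCl2, 0.01% BSA, 0.01% P20, ≥2 h at room temperature. IC50 from sigmoidal fit, converted to Ki via peptide KD; falling Eu counts flagged false positives.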

PCSK9 [2] = molecular target: T1, PCSK9; assay: PCSK9 Alexa FRET Plus assay (displacement of AlexaFluor647 tagged cyclic peptide Reagent B); conditions: Alexa FRET Plus, 0.5 nM PCSK9, 960 nM AF cyclic peptide Reagent B; read-out: IC50
Protocol: A solution containing 1 nM biotinylated PCSK9+2.5 nM Lance Streptavidin Europium (Strep-Eu) was made in 50 mM HEPES pH 7.4, 0.15 M NaCl, 5 mM CaCl2), 0.01% BSA, and 0.01% Surfactant P20. A separate solution containing 1920 nM of the AlexaFluor tagged cyclic peptide was made in the same buffer system. An Echo was used to transfer 0.075 ul of compound plus 0.675 ul of DMSO to each well of an assay plate followed by the addition of 15 ul of PCSK9+Stept-Eu and 15 ul of AF peptide. The final assay volume was 30.750 ul containing 0.5 nM PCSK9, 1.25 nM Strep-Eu, and 960 nM AF cyclic peptide. The reaction was incubated at room temperature for at least two hours prior to fluorescence measurements using an Envision Multilabel Reader. IC50 values were determined by fitting data to a sigmoidal dose-response curve using nonlinear regression. Ki was then calculated from the IC50 and the KD of AF cyclic peptide. Counts (B-counts) of the europium-labeled PCSK9 were followed to observe if compounds were adversely affecting PCSK9. A fall off of the B-counts likely indicated a false positive of inhibition. Data from this procedure was reported as “P=‘numerical value’ (nanomolar)”

[3] = molecular target: human PCSK9 / human LDLR EGFa domain interaction (Homo sapiens (Human), UniProt Q8NBP7); assay: TR-FRET assay of inhibition of the PCSK9-LDLR protein-protein interaction; conditions: TR-FRET, 20 nM human PCSK9, 20 nM human LDLR EGFa domain, 2 hours room temperature; read-out: IC50
Sequence of human PCSK9 / human LDLR EGFa domain interaction (Q8NBP7 153-692): as above
Sequence of human PCSK9 / human LDLR EGFa domain interaction (Q8NBP7 31-152 partner): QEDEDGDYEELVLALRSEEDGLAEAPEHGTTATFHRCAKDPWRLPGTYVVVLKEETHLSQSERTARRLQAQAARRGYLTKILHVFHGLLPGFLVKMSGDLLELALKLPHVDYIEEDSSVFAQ
Method in brief: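 Avitag-biotinylated human PCSK9 (20 nM) and his-tagged human LDLR EGFa domain (20 nM) were incubated with 5 nM Ulight streptavidin and 5 nM europium anti-6×His for 2 h at room temperature. Buffer: 50 mM HEPES, 150 mM NaCl, 5 mM CaCl2, 0.01% BSA, 0.01% P20. IC50 from 4-parameter fit of dose-response.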

IC50 (PCSK9 [1]) [nM]	IC50 (PCSK9 [2]) [nM]	IC50 [3] [nM]	SMILES
0.11 to 100	0.1 to 100	–	C[C@H]1NC(=O)[C@H](CCCCN)NC(=O)CCSCc2cccc(c2)CSC[C@@H](C(N)=O)NC(=O)[C@]2(C)CCCN2C(=O)[C@H](Cc2ccc(O)cc2)NC(=O)c2cccc(c2)CNC(=O)[C@H](Cc2c[nH]c3ccc(F)cc23)NC(=O)[C@H](Cc2c[nH]c3ccc(F)cc23)NC1=O [Compound 089] ([Mpa]K[dA][Trp(5-F)][Trp(5-F)][3Amb]Y[αMeP]C-NH2; linker 1-9 via mXylylene)
0.11 to 100	0.1 to 100	–	COc1ccc(C[C@@H]2NC(=O)[C@H]([C@@H](C)O)NC(=O)[C@@H]3C[C@H](F)CN3C(=O)[C@H](Cc3c[nH]c4ccc(F)cc34)NC(=O)[C@H](Cc3c[nH]c4ccc(F)cc34)NC(=O)[C@@H](C)NC(=O)[C@H](CCCCN)NC(=O)CCCNC(=O)COc3ccc(cc3)C[C@@H](C(N)=O)NC(=O)[C@]3(C)CCCN3C2=O)cc1 [Compound 092] (K[dA][Trp(5-F)][Trp(5-F)][Pro(cis-4-F)]TY(Me)[αMeP]Y-NH2; linker N-9 via X44)
0.11 to 100	–	100 to 1000	COc1ccc(C[C@@H]2NC(=O)[C@@H]3CCCCCCCO[C@H]4C[C@@H](C(=O)N3)N(C4)C(=O)[C@H](Cc3c[nH]c4ccc(F)cc34)NC(=O)[C@H](Cc3c[nH]c4ccc(F)cc34)NC(=O)[C@@H](C)NC(=O)[C@H](CCCCN)NC(=O)CCSCc3cccc(c3)CSC[C@@H](C(N)=O)NC(=O)[C@]3(C)CCCN3C2=O)cc1 [Compound 511]
0.11 to 100	–	0.1 to 100	COc1ccc(C[C@@H]2NC(=O)[C@@H]3CCC/C=C\CO[C@H]4C[C@@H](C(=O)N3)N(C4)C(=O)[C@H](Cc3c[nH]c4ccc(F)cc34)NC(=O)[C@H](Cc3c[nH]c4ccc(F)cc34)NC(=O)[C@@H](C)NC(=O)CCCCCC(=O)NCc3ccc(cc3)C[C@@H](C(N)=O)NC(=O)[C@]3(C)CCCN3C2=O)cc1 [Compound 512]
0.11 to 100	–	0.1 to 100	COc1ccc(C[C@@H]2NC(=O)[C@@H]3CCCCC(=O)N[C@H]4C[C@@H](C(=O)N3)N(C4)C(=O)[C@H](Cc3c[nH]c4ccc(F)cc34)NC(=O)[C@H](Cc3c[nH]c4ccc(F)cc34)NC(=O)[C@@H](C)NC(=O)[C@H](CCCN)NC(=O)CCSCc3cccc(c3)CCSCNC(=O)[C@]3(C)CCCN3C2=O)cc1 [Compound 521]

Continued, compound first:

SMILES	IC50 (PCSK9 [1]) [nM]	IC50 (PCSK9 [2]) [nM]	IC50 [3] [nM]
COc1ccc(C[C@@H]2NC(=O)[C@H]([C@@H](C)O)NC(=O)[C@@H]3C[C@H](F)CN3C(=O)[C@H](Cc3c[nH]c4ccc(F)cc34)NC(=O)[C@H](Cc3c[nH]c4ccc(F)cc34)NC(=O)[C@@H](C)NC(=O)[C@H](CCCCN)NC(=O)[C@@H](NC(C)=O)CCCNC(=O)COc3ccc(cc3)C[C@@H](C(N)=O)NC(=O)[C@]3(C)CCCN3C2=O)cc1 [Compound 091] (Ac-[Orn]K[dA][Trp(5-F)][Trp(5-F)][Pro(cis-4-F)]TY(Me)[αMeP]Y-NH2; linker 1-10 via X2)	0.11 to 100	100 to 500	–
COc1ccc(C[C@@H]2NC(=O)[C@H]([C@@H](C)O)NC(=O)[C@@H]3CC[C@H](F)N3C(=O)[C@H](Cc3c[nH]c4ccc(F)cc34)NC(=O)[C@H](Cc3c[nH]c4ccc(F)cc34)NC(=O)[C@@H](C)NC(=O)c3ccc(cc3)-c3ccc(cc3)CNCc3ccc(cc3)C[C@@H](C(N)=O)NC(=O)[C@]3(C)CCCN3C2=O)cc1 [Compound 093]	1000 to 12100	500 to 5000	–
COc1ccc(C[C@@H]2NC(=O)[C@H]([C@@H](C)O)NC(=O)[C@@H]3C[C@H](F)CN3C(=O)[C@H](Cc3c[nH]c4ccc(F)cc34)NC(=O)[C@H](Cc3c[nH]c4ccc(F)cc34)NC(=O)[C@@H](C)NC(=O)[C@H](CCCCN)NC(=O)[C@@H](NC(C)=O)CC(=O)NCc3ccc(cc3)CCNC(=O)[C@]3(C)CCCN3C2=O)cc1 [Compound 095] (Ac-DK[dA][Trp(5-F)][Trp(5-F)][Pro(cis-4-F)]TY(Me)[αMeP]; linker 1-C via NHCH2C6H4(p)CH2CH2NH)	100 to 1000	500 to 5000	–
COc1ccc(C[C@@H]2NC(=O)[C@H]([C@@H](C)O)NC(=O)[C@@H]3C[C@H](F)CN3C(=O)[C@H](Cc3c[nH]c4ccc(F)cc34)NC(=O)[C@H](Cc3c[nH]c4ccc(F)cc34)NC(=O)[C@@H](C)NC(=O)[C@H](CCCCN)NC(=O)CCC(=O)NCc3ccc(cc3)C[C@@H](C(N)=O)NC(=O)[C@]3(C)CCCN3C2=O)cc1 [Compound 097] (K[dA][Trp(5-F)][Trp(5-F)][Pro(cis-4-F)]TY(Me)[αMeP][Phe(4-CH2NH2)]-NH2; linker N-9 via Suc)	0.11 to 100	500 to 5000	–
CCCCCCCCCCCCCCCC(=O)N[C@@H](CCC(=O)NCCOCCOCC(=O)NCCOCCOCC(=O)NCCCC[C@@H]1NC(=O)[C@H](Cc2c[nH]c3ccc(F)cc23)NC(=O)[C@H](Cc2c[nH]c3ccc(F)cc23)CC(=O)[C@@H](C)NC(=O)[C@H](CCCCN)NC(=O)CCSCc2cccc(c2)CSC[C@@H](C(N)=O)NC(=O)[C@]2(C)CCCN2C(=O)[C@H](Cc2ccc(O)cc2)NC(=O)[C@H]([C@@H](C)O)NC1=O)C(=O)O [Compound 101] ([Mpa]K[X50][Trp(5-F)]K([AEEA-AEEA-γGlu-Palmitoyl])TY[αMeP]C-NH2; linker 1-9 via mXylylene)	0.11 to 100	100 to 500	–
COc1ccc(C[C@@H]2NC(=O)[C@@H]3CC/C=C\CO[C@H]4C[C@@H](C(=O)N3)N(C4)C(=O)[C@H](Cc3c[nH]c4ccc(F)cc34)NC(=O)[C@H](Cc3c[nH]c4ccc(F)cc34)NC(=O)[C@@H](C)NC(=O)[C@H](C)NC(=O)[C@@H](NC(C)=O)CC(=O)NCc3ccc(cc3)C[C@@H](C(=O)O)NC(=O)[C@]3(C)CCCN3C2=O)cc1 [Compound 514]	100 to 1000	–	100 to 1000
COc1ccc(C[C@@H]2NC(=O)[C@H](C)NC(=O)[C@@H]3CCCCNc4cc(ccn4)C[C@H](NC(=O)[C@@H](C)NC(=O)[C@H](C)NC(=O)CCSCc4cccc(c4)CSC[C@@H](C(N)=O)NC(=O)[C@]4(C)CCCN4C2=O)C(=O)N[C@@H](Cc2c[nH]c4ccc(F)cc24)C(=O)N3)cc1 [Compound 515]	0.11 to 100	–	0.1 to 100
COc1ccc(C[C@@H]2NC(=O)[C@H]([C@@H](C)O)NC(=O)[C@@H]3[C@@H]4CCN3C(=O)[C@H](Cc3c[nH]c5ccc(F)cc35)NC(=O)[C@H](Cc3cccc(c3)OC/C=C/CO4)NC(=O)[C@@H](C)NC(=O)[C@H](C)NC(=O)CCSCc3cccc(c3)CSCCNC(=O)[C@]3(C)CCCN3C2=O)cc1 [Compound 516] (cyclo(A[dA][X25][Trp(5-F)][X26]TY(Me)[αMeP][X4]); staple (E) 3-5)	0.11 to 100	–	0.1 to 100
COc1ccc(C[C@@H]2NC(=O)[C@@H]3CCCC(=O)N[C@H]4C[C@@H](C(=O)N3)N(C4)C(=O)[C@H](Cc3c[nH]c4ccc(F)cc34)NC(=O)[C@H](Cc3c[nH]c4ccc(F)cc34)NC(=O)[C@@H](C)NC(=O)[C@H](C)NCCSCc3ccc(cc3)CSCCNC(=O)[C@]3(C)CCCN3C2=O)cc1 [Compound 519]	1000 to 12100	–	1000 to 12100
COc1ccc(C[C@@H]2NC(=O)[C@H](Cc3cnc[nH]3)NC(=O)[C@H](CC(=O)O)NC(=O)[C@H](Cc3c[nH]c4ccc(F)cc34)NC(=O)[C@H](Cc3c[nH]c4ccc(F)cc34)NC(=O)[C@@H](C)NC(=O)[C@H](NC(C)=O)CCCCNC(=O)Cc3ccc(cc3)CNC(=O)CCC[C@@H](C(N)=O)NC(=O)[C@]3(C)CCCN3C2=O)cc1 [Compound 523] (Ac-[dK][dA][Trp(5-F)][Trp(5-F)]DHY(Me)[αMeP][Aad]-NH2; linker 1-9 via X6)	100 to 1000	–	0.1 to 100
